Consider 21 compounds from patent publication US11028061B2, “Modulators of myocyte lipid accumulation and insulin resistance and methods of use thereof” (Sanford Burnham Prebys Medical Discovery Institute, priority 2015, dated 2021).

pIC50: −log10 of the molar value.

In the first assay the test system is primary murine skeletal myocytes. The assay can be described thus: TAG accumulation in primary murine skeletal myocytes. The class given is cell-based. Particulars: Mus musculus, read-out: Activity Score (IC50), triacylglyceride (TAG) accumulation.
`COc1ccc(-c2csc(C(=O)Nc3ccc(OCC(=O)N4CCOCC4)c(OC)c3)n2)cc1` [Cpd. 91, N-(3-methoxy-4-(2-morpholino-2-oxoethoxy)phenyl)-4-(4-methoxyphenyl)thiazole-2-carboxamide]: the negative-log IC50 (pIC50) (commonly the IC50 on a negative log10 scale, so that one unit is a factor of ten) is less than 5.00.
The same measure, in the same setting: as for `CCNc1ccc(C(=O)Nc2nc(-c3ccc(OC)cc3)cs2)cc1OCCO` [Cpd. 99, 4-(ethylamino)-3-(2-hydroxyethoxy)-N-(4-(4-methoxyphenyl)thiazol-2-yl)benzamide], the figure is 5.00 to 6.00.

The same assay, now with this note: Mus musculus; primary murine skeletal myocytes; read-out: Activity Score (IC50), triacylglyceride (TAG) accumulation.
As for `COc1ccc(-c2csc(NC(=O)c3ccc(OCCN4CCOCC4)c(OC)c3)n2)cc1` [Cpd. 90, 3-methoxy-N-(4-(4-methoxyphenyl)thiazol-2-yl)-4-(2-morpholinoethoxy)benzamide], the negative-log IC50 (pIC50) was 5.00 to 6.00.
Turning to `COc1ccc(-c2csc(NC(=O)c3ccc(OCC(=O)N4CCOCC4)cn3)n2)cc1` [Cpd. 92, N-(4-(4-methoxyphenyl)thiazol-2-yl)-5-(2-morpholino-2-oxoethoxy)picolinamide], the negative logarithm of the IC50 (pIC50) is less than 5.00.
On the same count and under the same terms, as for `COc1ccc(-c2csc(NC(=O)c3ccc(OCC(=O)N4CCOCC4)nc3)n2)cc1` [Cpd. 93, N-(4-(4-methoxyphenyl)thiazol-2-yl)-6-(2-morpholino-2-oxoethoxy)nicotinamide], the figure is less than 5.00.
For `COc1ccc(-c2csc(NC(=O)c3cccc(OCC(=O)N4CCOCC4)c3)n2)cc1` [Cpd. 94, N-(4-(4-methoxyphenyl)thiazol-2-yl)-3-(2-morpholino-2-oxoethoxy)benzamide], the pIC50 was 5.00 to 6.00.
With `O=C(Nc1nc(-c2ccccc2)cs1)c1cccc(OCC(=O)N2CCOCC2)c1` [Cpd. 95, 3-(2-morpholino-2-oxoethoxy)-N-(4-phenylthiazol-2-yl)benzamide], the pIC50 was 5.00 to 6.00.
On to `COc1cccc(-c2csc(NC(=O)c3cccc(OCC(=O)N4CCOCC4)c3)n2)c1` [Cpd. 96, N-(4-(3-methoxyphenyl)thiazol-2-yl)-3-(2-morpholino-2-oxoethoxy)benzamide], for which the negative-log IC50 (pIC50) was 5.00 to 6.00.
Still for that read-out and setting: as for `COc1ccc(-c2csc(NC(=O)C3CCC(OCC(=O)N4CCOCC4)CC3)n2)cc1` (stereo not drawn) [Cpd. 97, N-(4-(4-methoxyphenyl)thiazol-2-yl)-4-(2-morpholino-2-oxoethoxy)cyclohexane-1-carboxamide], the figure is less than 5.00; as for `COc1ccc(Cc2cnc(NC(=O)c3ccc(OCC(=O)N4CCOCC4)c(OC)c3)s2)cc1` [Cpd. 98, 3-methoxy-N-(5-(4-methoxybenzyl)thiazol-2-yl)-4-(2-morpholino-2-oxoethoxy)benzamide], 5.00 to 6.00; as for `COc1cc(C(=O)Nc2ncc(Cc3cccc(C(F)(F)F)c3)s2)ccc1OCC(=O)N1CCOCC1` [Cpd. 100, 3-methoxy-4-(2-morpholino-2-oxoethoxy)-N-(5-(3-(trifluoromethyl)benzyl)thiazol-2-yl)benzamide], less than 5.00.
Same read-out and setting: as for `CNC(=O)CNc1ccc(C(=O)Nc2nc(-c3ccc(OC)cc3)cs2)cc1` [compound 67, N-(4-(4-methoxyphenyl)thiazol-2-yl)-4-((2-(methylamino)-2-oxoethyl)amino)benzamide], the figure is more than 6.00.
On the same count and under the same terms, as for `COc1ccc(-c2csc(NC(=O)c3ccc(NCC(=O)N(C)C)cc3)n2)cc1` [compound 68, 4-((2-(dimethylamino)-2-oxoethyl)amino)-N-(4-(4-methoxyphenyl)thiazol-2-yl)benzamide], the figure is more than 6.00.
As for `COCCNC(=O)CNc1ccc(C(=O)Nc2nc(-c3ccc(OC)cc3)cs2)cc1` [compound 69, 4-((2-((2-methoxyethyl)amino)-2-oxoethyl)amino)-N-(4-(4-methoxyphenyl)thiazol-2-yl)benzamide], the negative logarithm of the IC50 (pIC50) is less than 5.00.
On the same count and under the same terms, as for `COc1ccc(-c2csc(NC(=O)c3ccc(NCC(=O)N4CCOCC4)cc3)n2)c(Cl)c1` [compound 70, N-(4-(2-chloro-4-methoxyphenyl)thiazol-2-yl)-4-((2-morpholino-2-oxoethyl)amino)benzamide], the figure is more than 6.00; as for `CNC(=O)CNc1ccc(C(=O)Nc2nc(-c3ccc(OC)cc3Cl)cs2)cc1` [compound 71, N-(4-(2-chloro-4-methoxyphenyl)thiazol-2-yl)-4-((2-(methylamino)-2-oxoethyl)amino)benzamide], more than 6.00; as for `COc1ccc(-c2csc(NC(=O)c3ccc(NCC(=O)N(C)C)cc3)n2)c(Cl)c1` [compound 72, N-(4-(2-chloro-4-methoxyphenyl)thiazol-2-yl)-4-((2-(dimethylamino)-2-oxoethyl)amino)benzamide], more than 6.00.
`COCCNC(=O)CNc1ccc(C(=O)Nc2nc(-c3ccc(OC)cc3Cl)cs2)cc1` [compound 73, N-(4-(2-chloro-4-methoxyphenyl)thiazol-2-yl)-4-((2-((2-methoxyethyl)amino)-2-oxoethyl)amino)benzamide]: the pIC50 is more than 6.00.
Take `COc1ccc(-c2csc(NC(=O)c3ccc(N)c(OC)c3)n2)cc1` [compound 77, 4-amino-3-methoxy-N-(4-(4-methoxyphenyl)thiazol-2-yl)benzamide]: the negative-log IC50 (pIC50) is 5.00 to 6.00.
The same measure, in the same setting: next, `COc1cc(C(=O)Nc2ncc(-c3ccccc3)s2)ccc1OCC(=O)N1CCOCC1` [compound 79, 3-methoxy-4-(2-morpholino-2-oxoethoxy)-N-(5-phenylthiazol-2-yl)benzamide]: less than 5.00; `COc1ccc(-c2cnc(NC(=O)c3ccc(OCC(=O)N4CCOCC4)c(OC)c3)s2)cc1` [compound 80, 3-methoxy-N-(5-(4-methoxyphenyl)thiazol-2-yl)-4-(2-morpholino-2-oxoethoxy)benzamide]: less than 5.00.
